The values below are quoted from earlier work in patent US6777448B2, “Veterinary compositions for the treatment of parasitic diseases” (New Pharma Research Sweden AB, priority 2000, dated 2004).

Molecules are shown by their SMILES. Where two headings read alike, the source gives them in different places.

For data set [1] the following is noted: given orally.
For data set [2] the following is noted: bloodstream of animals.
The conditions of data set [3]: delivered via injection as such.

Consider `O=C(Nc1ccc(Oc2ccc(Cl)cc2)c(Cl)c1)c1cc(I)cc(I)c1O` [rafoxanide, 3′-chloro-4′-(4-chlorophenoxy)-3,5-di-iodosalicylanilide], for which the absorption in data set [1] (non-gastric species) was 10%; in data set [1] (ruminants) it was “up to 50%”. In addition, the “binding to protein in the blood” value in data set [2] is listed as “bind strongly to protein in the blood”. For the same molecule, the “persistence in the bloodstream” value in data set [2] is given as “persist in the bloodstream of animals”. For the setting “in a 1% surface-active agent composition”, the solubility is on record as 0.14%. The solubility in water result (water at 25° C.) was “approximately 0.005 % weight/volume”. Moreover, the irritation on injection entry in data set [3] is given as “irritating”.
